Assay results taken from patent US7371874B2, “6-Alkylamino-2-methyl-2′-(N-methyl substituted sulfonamido)methyl-2H-1-benzopyran derivative as anti-inflammatory inhibitor” (Korea Research Institute of Chemical Technology, priority 2005, dated 2008).

How the values were obtained:
5-LO = molecular target: T1, 5-LO (Homo sapiens, UniProt P09917); assay: 5-Lipoxygenase enzyme assay, bioassay using FOX reagent; format: biochemical; conditions: test compound 1 μM; lysate from 5-LO expressed insect cells; arachidonic acid 40 μM
T1 construct: made in house; host or cells: insect cells (crude lysate)
T1 sequence (P09917 1-674): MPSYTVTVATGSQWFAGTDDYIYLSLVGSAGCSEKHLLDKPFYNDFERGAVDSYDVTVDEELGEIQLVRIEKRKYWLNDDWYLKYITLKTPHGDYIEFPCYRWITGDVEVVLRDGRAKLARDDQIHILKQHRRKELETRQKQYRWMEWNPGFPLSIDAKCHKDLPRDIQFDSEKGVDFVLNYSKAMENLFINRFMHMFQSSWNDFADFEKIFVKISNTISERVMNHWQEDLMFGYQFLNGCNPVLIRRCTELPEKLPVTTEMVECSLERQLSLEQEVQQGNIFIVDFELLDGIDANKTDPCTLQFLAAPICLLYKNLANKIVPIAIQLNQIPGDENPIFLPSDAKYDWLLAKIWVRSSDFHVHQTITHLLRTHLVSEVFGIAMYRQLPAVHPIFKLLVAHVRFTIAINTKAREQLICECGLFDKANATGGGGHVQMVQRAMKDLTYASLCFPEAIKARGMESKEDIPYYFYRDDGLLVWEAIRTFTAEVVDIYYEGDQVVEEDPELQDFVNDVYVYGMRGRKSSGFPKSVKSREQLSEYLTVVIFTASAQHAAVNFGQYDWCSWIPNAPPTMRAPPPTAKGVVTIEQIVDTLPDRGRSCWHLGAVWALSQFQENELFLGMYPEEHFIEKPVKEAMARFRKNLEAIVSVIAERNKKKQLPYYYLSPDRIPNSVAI
Method: 1. 5-Lipoxygenase enzyme assay
1) Bioassay Using FOX Reagent
Each test compound (final concentration=1 μM) was added to a lysate (7 μg) obtained from 5-LO expressed insect cells and reaction was performed at room temperature for 3 minutes. Then, arachidonic acid (40 μM) was added as enzyme substrate and reaction was further performed at room temperature for 4 minutes. 100 μL of a FOX reagent (sulfuric acid 25 mM, xylenol orange 100 μM, FeSO4 100 μM, methanol/water=9:1) was added thereto and then, after 5 minutes, absorbance was measured at 575 nm.

Mouse ear edema = assay: In vivo bioassay (mouse ear edema model, arachidonic acid); design: species or system ICR mouse; conditions: oral in 0.5% methylcellulose 1 hour before arachidonic acid, compared with control; for Mouse ear edema model (in vivo assay): Thickness: ear thickness after 1 hour; for Mouse ear edema model (in vivo assay): MPO: myeloperoxidase activity of ear tissue
Method: 3. In Vivo Bioassay (Mouse Ear Edema Model)
The inside of the right ear of an ICR mouse (6 weeks old) was treated with 2 mg of arachidonic acid dissolved in 20 μL of acetone for 1 hour to induce an inflammation.
After 1 hour, the difference of thickness T (%) between the arachidonic acid-treated right ear and the non-treated left ear was measured with a microgauge.
Further, myeloperoxidase (MPO) activity was measured in order to measure the amount of neutrophil penetrated into the tissue as a primary marker for induced inflammation. The tissue obtained from the arachidonic acid-treated right ear was homogenized in a 50 mM phosphate buffer solution (pH 6.0) containing 0.5% hexadecyltrimethylammonium bromide (HTAB), centrifuged and then the MPO activity (MPO %) of the supernatant was measured.
To measure in vivo activity of each test compound, each compound was dissolved in 0.5% methylcellulose (10 mL/kg) and orally administered to a mouse 1 hour before treatment with arachidonic acid. Then, arachidonic acid was treated for 1 hour and the thickness of ear and MPO activity were measured. In vivo activity of each test compound was estimated by comparing the test result with that of a control which was treated only with arachidonic acid, without the test compound.

[1] = system: LTB4 in Rat basophilic leukemia (RBL-1) cells; assay: LTB4 cell-based assay (RBL-1 cells, A23187, ELISA); conditions: A23187 10 μM, LTB4 by ELISA
Method: Rat basophilic leukemia (RBL-1) cells were inoculated at a 24-well plate to a final concentration of 7.5×10^5 cells/well and incubated for 2 hours, so that they adhered to the bottom of the plate. […] The well plate was centrifuged at 1,500 g for 20 minutes to isolate the supernatant and then the amount of LTB4 of the supernatant was measured with ELISA analysis.

SMILES | 5-LO enzyme assay (% inhibition, at 1 μM) (5-LO) [%] | inhibition at 1 µM (5-LO) [%] | Mouse ear edema model (in vivo assay): Thickness (Mouse ear edema) | Mouse ear edema model (in vivo assay): MPO (Mouse ear edema) | Cell-based assay (% inhibition, at 1 μM) [1] [%]
COc1ccc(S(=O)(=O)N(C)CC2(C)C=Cc3cc(NCc4ccc(C)s4)ccc3O2)cc1 (centres unmarked) [1-1-40] | 45 | – | – | – | 38
COc1ccc(S(=O)(=O)N(C)CC2(C)C=Cc3cc(NCc4ccsc4)ccc3O2)cc1 (centres unmarked) [1-1-51] | 48 | – | – | – | 36
CCOC(OCC)c1ccc(CNc2ccc3c(c2)C=CC(C)(CN(C)S(=O)(=O)c2ccc(C)cc2)O3)cc1 (centres unmarked) [1-1-103] | 63 | – | – | – | 52
CN(CC1(C)C=Cc2cc(NCc3ccsc3)ccc2O1)S(=O)(=O)c1ccc(C(C)(C)C)cc1 (centres unmarked) [1-1-132] | 47 | – | – | – | 35
COc1ccc(CNc2ccc3c(c2)C=CC(C)(CN(C)S(=O)(=O)Cc2ccccc2)O3)cc1 (centres unmarked) [1-1-163] | 61 | – | – | – | 43
CN(CC1(C)C=Cc2cc(NCc3ccncc3)ccc2O1)S(=O)(=O)Cc1ccccc1 (centres unmarked) [1-1-183] | – | 45 | – | – | –
Cc1ccc(CNc2ccc3c(c2)C=CC(C)(CN(C)S(=O)(=O)c2ccc(F)cc2)O3)s1 (centres unmarked) [1-1-256] | 79 | – | – | – | 63
CCCS(=O)(=O)N(C)CC1(C)C=Cc2cc(NCc3ccc(OC)cc3)ccc2O1 (centres unmarked) [1-1-298] | 73 | – | – | – | 47
CC(c1cc2ccccc2s1)N(O)C(N)=O (centres unmarked) [reference compound] | – | – | 67% | 38% | –

Further lines, with some results ahead:

5-LO enzyme assay (% inhibition, at 1 μM) (5-LO) [%] | inhibition at 1 µM (5-LO) [%] | SMILES | Mouse ear edema model (in vivo assay): Thickness (Mouse ear edema) | Mouse ear edema model (in vivo assay): MPO (Mouse ear edema) | Cell-based assay (% inhibition, at 1 μM) [1] [%]
86 | – | COc1ccc(CNc2ccc3c(c2)C=CC(C)(CN(C)S(=O)(=O)c2ccccc2)O3)cc1 (centres unmarked) [1-1-1] | Thickness 62% | MPO 34% | 82
80 | – | CN(CC1(C)C=Cc2cc(NCc3ccc(C#N)cc3)ccc2O1)S(=O)(=O)c1ccccc1 (centres unmarked) [1-1-7] | – | – | 71
87 | – | CN(CC1(C)C=Cc2cc(NCc3ccc(F)cc3)ccc2O1)S(=O)(=O)c1ccccc1 (centres unmarked) [1-1-10] | Thickness 60% | MPO 27% | 81
73 | – | CN(CC1(C)C=Cc2cc(NCc3cccc(F)c3)ccc2O1)S(=O)(=O)c1ccccc1 (centres unmarked) [1-1-11] | – | – | 58
– | 44 | CN(CC1(C)C=Cc2cc(NCc3ccsc3)ccc2O1)S(=O)(=O)c1ccccc1 (centres unmarked) [1-1-24] | – | – | –
70 | – | COc1ccc(CNc2ccc3c(c2)C=CC(C)(CN(C)S(=O)(=O)c2ccc(Cl)cc2)O3)cc1 (centres unmarked) [1-1-217] | – | – | 56
67 | – | COc1ccc(CNc2ccc3c(c2)C=CC(C)(CN(C)S(=O)(=O)c2ccc(F)cc2)O3)cc1 (centres unmarked) [1-1-244] | – | – | 41
79 | – | Cc1cc2c(cc1NCc1ccc(C#N)cc1)C=CC(C)(CN(C)S(=O)(=O)c1ccccc1)O2 (centres unmarked) [1-2-7] | – | – | 61
80 | – | Cc1cc2c(cc1NCc1cccs1)C=CC(C)(CN(C)S(=O)(=O)c1ccccc1)O2 (centres unmarked) [1-2-23] | – | – | 74
